The values below are quoted from earlier work in US20090263481A1, “LEVETIRACETAM FORMULATIONS” (priority 2008, published 2009).

Where two headings read alike, the source gives them in different places.

Experiment in series [1]: not given
This is another data set of the same source.

Series [2] concerns plasma proteins.

In the case of `CC[C@@H](C(N)=O)N1CCCC1=O` [Levetiracetam, (−)-(S)-α-ethyl-2-oxo-1-pyrrolidine acetamide], the “solubility (descriptive)” value runs as follows: (acetonitrile) “sparingly soluble”; (chloroform) “freely soluble”; (ethanol) “soluble”; (methanol) “freely soluble”; (n-hexane) “practically insoluble”; (water) “very soluble”. Besides, under “water”, the aqueous solubility was 104 g/100 mL. Besides, in series [1] (in vivo), the “dose range over which pharmacokinetics are linear” value was 500 to 5000 mg. Further, the “absorption after oral administration (descriptive)” value in series [1] (oral administration) was “rapidly and almost completely absorbed”. The “time of peak plasma concentrations” value in series [1] (oral administration to fasted subjects) was “one”. Besides, the “decrease of Cmax by food” value in series [1] (oral, with food) is recorded as 20%. The “time to steady state” value in series [1] (twice-daily dosing) is 2 days. Also, the “bound to plasma proteins” value in series [2] is reported as “less than 10%”.
